Results on 16 molecules are retold here after US8895806B2, “Fucosyl transferase gene” (priority 1999, dated 2014).

Read-outs that look alike come from different tables or passages of the source.

What all share (type): biochemical, mung bean
The target of data set [1] is recombinant GlcNAc-α1,3-fucosyl transferase (Vigna radiata, UniProt Q9ST51). Kind of data set: Assay for GlcNAc-α1,3-fucosyl transferase activity (GnGn peptide and GDP-L-[U-14C]-fucose). Particulars: for Rel. Activity: acceptor substrate, standard test conditions; for Km: acceptor or donor substrate, unit inferred, read-out: apparent Km-values.
Substrate in data set [2]: C[C@@H]1O[C@H](OP(=O)(O)OP(=O)(O)OC[C@H]2O[C@@H](n3cnc4c(=O)[nH]c(N)nc43)[C@H](O)[C@@H]2O)[C@@H](O)[C@H](O)[C@@H]1O
The data set is described as above. Particulars: other: acceptor or donor substrate, unit inferred; pH 7.4; 27.0 °C.

Data set [3] relates to GlcNAc-α1,3-fucosyl transferase activity. The data set is described as follows: Enzyme activity of insect cells transfected with the α1,3-fucosyl transferase gene versus negative control. The source says: The encoding region of the assumed GlcNAc-α1,3-fucosyl transferase including cytoplasmatic and transmembrane region was amplified with the forward primer 5′-[…]-3′ (SEQ ID NO: 16) and reverse primer 5′-[…]-3′ (SEQ ID NO: 17) by means of the Expand High Fidelity PCR System of Boehringer Mannheim. The PCR product was double-digested with PstI and BamHI and subcloned in alkaline phosphatase-treated baculovirus transfer vector pVL1393 which previously had been digested with PstI and BamHI. To ensure a homologous recombination, the transfer vector was co-transfected with Baculo Gold viral DNA (PharMingen, Sand Diego, Calif.) in Sf9 insect cells in IPL-41 Medium with lipofectin. After an incubation of 5 days at 27° C., various volumes of the supernatant with the recombinant virus were used for infecting the Sf21 insect cells. After an incubation of 4 days at 27° C. in IPL-41 Medium with 5% FCS, the […] cells were harvested and washed 2× with phosphate-buffered saline solution. The cells were resuspended in 25 mM Tris HCl buffer, pH 7.4, with 2% Triton X-100 and broken up by sonication on ice.
The homogenate and the cell supernatant were assayed for GlcNAc-α1,3-fucosyl transferase. Blind samples were carried out with recombinant baculovirus which codes for the tobacco-GlcNAc-transferase I (Strasser et al., 1999, Glycobiology, in the process of printing). […]

Where [4] appears, read: additive conc. 10 mM, recombinant transferase.

With `[Ca+2].[Cl-].[Cl-]` [CaCl2], in data set [1] (additive conc. 10 mM, […]), the “Relative Activity (Acceptor: GnGn-peptide)” value (from here on “Relative Activity”) is on record as 82%.
As to `[Cl][Cd][Cl]` [CdCl2], the “Relative Activity” value in data set [1] (additive conc. 10 mM, […]) was 44%.
On to `[Cl-].[Cl-].[Co+2]` [CoCl2], for which, in data set [1], the “Relative Activity” value is 35%.
Take `[Cl][Cu][Cl]` [CuCl2]: the “Relative Activity” value in data set [1] (setting [4]) is 3%.
With `O=C(O)CN(CCN(CC(=O)O)CC(=O)O)CC(=O)O` [EDTA], in data set [1] (setting [4]), the “Relative Activity” value is listed as 18%.
For `CC(=O)N[C@H]1C(O)O[C@H](CO)[C@@H](O[C@@H]2O[C@H](CO)[C@H](O)[C@H](O)[C@H]2O)[C@@H]1O` (stereo partly shown) [Galβ-4GlcNAc], in data set [1] (recombinant transferase), the “Rel. Activity” value is recorded as 0%.
On to `[Cl-].[Cl-].[Mg+2]` [MgCl2], for which the “Relative Activity” value in data set [1] (setting [4]) is reported as 52%.
With `[Cl][Mn][Cl]` [MnCl2], the “Relative Activity” value in data set [1] (additive conc. 10 mM, […]) is 100%. Besides, the “effect of addition of bivalent cations on activity of the recombinant transferase” value in data set [1] (result in words) is on record as “enhances the activity”.
As for `[Cl][Ni][Cl]` [NiCl2], the “Relative Activity” value in data set [1] (additive conc. 10 mM, […]) is given as 24%.
With `[Cl-].[Cl-].[Zn+2]` [ZnCl2], the “Relative Activity” value in data set [1] (setting [4]) is 0.6%.
For the molecule Galβ1-3GlcNAc, the “Rel. Activity” value in data set [1] (recombinant transferase) is 0%.
Regarding Galβ1-3GlcNAcβ1-3Galβ1-4Glc, the “Rel. Activity” value in data set [1] (recombinant transferase) was determined as 0%.
The Km is the substrate concentration at which the rate is half of its maximum. For the molecule “GlcNAcβ1-2Manα1-3(GlcNAcβ1-2Manα1-6)Manβ1-4GlcNAcβ1-4(Fucα1-6)GlcNAcβ1-Asn [GnGnF^6-peptide]”, the Km in data set [1] came to 130 µM. Further, the “Rel. Activity” value in data set [1] (recombinant transferase) was determined as 87%.
The corresponding values for “GlcNAcβ1-2Manα1-3(GlcNAβ1-2Manα1-6)Manβ1-4GlcNAcβ1-4GlcNAcβ1-Asn [GnGn-peptide]” are 190 µM and 100%.
Consider “GlcNAcβ1-2Manα1-3[Manα1-3(Manα1-6)Manα1-6]Manβ1-4GlcNAcβ1-4GlcNAcβ1-Asn [M5Gn-Asn]”, for which the Km in data set [1] turned out to be 230 µM. Besides, the “Rel. Activity” value in data set [1] (recombinant transferase) is given as 71%.

B1: recombinant GlcNAc-α1,3-fucosyl transferase (Vigna radiata var. radiata) (protein)
chain: MMGLLTNLRGSRTDGAQQDSLPVLAPGGNPKRKWSNLMPLVVALVVIAEIAFLGRLDMAKNAAMVDSLADFFYRSRAVVEGDDLGLGLVASDRNSESYSCEEWLEREDAVTYSRGFSKEPIFVSGADQEWKSCSVGCKFGFSGDRKPDAAFGLPQPSGTASILRSMESAEYYAENNIAMARRRGYNIVMTTSLSSDVPVGYFSWAEYDMMAPVQPKTEAALAAAFISNCGARNFRLQALEALEKSNIKIDSYGGCHRNRDGRVNKVEALKHYKFSLAFENSNEEDYVTEKFFQSLVAGTVPVVVGAPNIQDFAPSPGSILHIKEIEDVESVAKTMRYLAENPEAYNQSLRWKYEGPSDSFKALVDMAAVHSSCRLCIHLATVSREKEENNPSLKRRPCKCTRGPETVYHIYVRERGRFEMESIYLRSSNLTLNAVKAAVVLKFTSLNLVPVWKTERPEVIRGGSALKLYKIYPIGLTQRQALYTFSFKGDADFRSHLENNPCAKFEVIFV
Consider B1, for which, in data set [2], the Km turned out to be 110 µM. Also, the “enzyme activity of the cotransfected cells and their supernatant relative to negative controls” value in data set [3] (Sf21 insect cells, homogenate and supernatant, at best) is given as no more than 30 ×. Moreover, in data set [3] (corrected for endogenous insect α1,6-fucosyl transferase activity), the “increase in the GlcNAc-α1,3-fucosyl transferase coming from the recombinant baculoviruses” value is given as > 100 -fold.
